Structures are written as SMILES. The source made the active and inactive calls. The rule behind the calls is not given here.

2 compounds from ChEMBL document CHEMBL1151426, “Pharmacodynamics of doxycycline in a murine malaria model” (Antimicrob Agents Chemother, 2007) can be followed below.

The test system of series [1] is Plasmodium berghei. The experiment in a line: Antimalarial activity as parasitaemia against Plasmodium berghei ANKA infected Swiss mice (Mus musculus) at 30 mg/kg intraperitoneal single dose 64 hrs post infection (Rvb=2.5%+/-0.5%). Format: functional.
Series [2] concerns Mus musculus. The experiment in a line: Toxicity in Plasmodium berghei ANKA infected Swiss mice (Mus musculus) assessed as median time for adverse effect at 30 mg/kg, intraperitoneally administered as single dose 64 hrs after infection measured after 24 hrs. The arrangement: dose 30 mg/kg, route intraperitoneal. In kind it is organism-based. To be noted: in vivo, ip.
Series [3] concerns Plasmodium berghei. The experiment in a line: Antimalarial activity as parasitaemia nadir after 24 hrs against Plasmodium berghei ANKA infected Swiss mice (Mus musculus) at 30 mg/kg intraperitoneal single dose 64 hrs post infection. Format: functional.
Series [4] concerns Plasmodium berghei. The experiment in a line: Antimalarial activity as reduced parasitaemia after 24hrs against Plasmodium berghei ANKA infected Swiss mice (Mus musculus) at 30 mg/kg intraperitoneal single dose 64 hrs post infection. Details: dose 30 mg/kg. In kind it is functional, organism-based.
Series [5] deals with Plasmodium berghei. The experiment in a line: Antimalarial activity as reduced parasitaemia against Plasmodium berghei ANKA infected Swiss mice (Mus musculus) at 90 mg/kg intraperitoneal dose at 65, 76 and 88 hrs post infection. In kind it is functional, organism-based. Details: dose 90 mg/kg.
Series [6] concerns Mus musculus. The experiment in a line: Toxicity in Plasmodium berghei ANKA infected Swiss mice (Mus musculus) assessed as adverse effect at 90 mg/kg, intraperitoneally administered at 1,12 and 24 hrs after 64 hrs postinfection. Format: organism-based. Details: dose 90 mg/kg, route intraperitoneal. As to conditions: in vivo, ip.
Series [7] relates to Mus musculus. The experiment in a line: Toxicity in Plasmodium berghei ANKA infected Swiss mice (Mus musculus) assessed as discomfort at 180 mg/kg, intraperitoneally administered as single dose 64 hrs after infection. To be noted: in vivo, ip. The arrangement: dose 180 mg/kg, route intraperitoneal. In kind it is organism-based.
A short description of series [8]: Half life in Plasmodium falciparum infected human at 200 mg/day, perorally after 7 days. Format: ADME, organism-based. To be noted: in vivo, po.
In series [9] the test system is Plasmodium berghei. Briefly: Antimalarial activity as parasitaemia nadir against Plasmodium berghei ANKA infected Swiss mice (Mus musculus) at 90 mg/kg intraperitoneal dose 65, 76 and 88 hrs post infection. Format: functional.
The test system of series [10] is Mus musculus. Briefly: Toxicity in Plasmodium berghei ANKA infected Swiss mice (Mus musculus) assessed as median time for adverse effect at 90 mg/kg, intraperitoneally administered at 1,12 and 24 hrs after 64 hrs postinfection. In kind it is organism-based. The arrangement: dose 90 mg/kg, route intraperitoneal. As to conditions: in vivo, ip.
Series [11] deals with Plasmodium berghei. The experiment in a line: Antimalarial activity as parasitaemia against Plasmodium berghei ANKA infected Swiss mice (Mus musculus) at 90 mg/kg intraperitoneal dose 65, 76 and 88 hrs post infection (Rvb=2.5%+/-0.5%). In kind it is functional.
The subject of series [12] is Plasmodium berghei. Briefly: Antimalarial activity as reduced parasitaemia against Plasmodium berghei ANKA infected Swiss mice (Mus musculus) up to 180 mg/kg intraperitoneal single dose 64 hrs post infection. Details: dose 180 mg/kg. In kind it is functional, organism-based.
Series [13] can be described thus: Half life in Plasmodium falciparum infected human dosed every 24 hrs after 48 hrs of infection. Format: ADME, organism-based. As to conditions: in vivo.
Series [14] in a line: Half life in healthy mouse at 50 mg/kg. Format: ADME, organism-based. Details: dose 50 mg/kg. As to conditions: in vivo.

With `C[C@H]1[C@@H](O)O[C@@H]2O[C@@]3(C)CC[C@H]4[C@H](C)CC[C@@H]1[C@@]24OO3` [ARTENIMOL], the Activity was 2.6% in series [1], 1 days in [2] and 0.53% in [3]. Further, the outcome in [4] was Active.
On to `C[C@H]1c2cccc(O)c2C(=O)C2=C(O)[C@]3(O)C(=O)C(C(N)=O)=C(O)[C@@H](N(C)C)[C@@H]3[C@@H](O)[C@@H]21.O` [DOXYCYCLINE], for which the result in [5] was Active. Moreover, the Activity result is on record as “Non-toxic” in series [6], “Toxic” in series [7], 0.06% in series [9] and 3% in series [11]. Further, the half-life (as a rule, the time in which the quantity being followed falls by half) in series [8] was 14 h; in [13], 10.5 h; in [14], 2.8 h. Besides, in [10], the Time is 6 days. For the same compound, the result in series [12] was inactive.
